Patent US11912668B2, “GCN2 and perk kinase inhibitors and methods of use thereof” (Deciphera Pharmaceuticals, LLC, priority 2020, dated 2024)

Key:
Format in all cases: cell-based
CCRF-CEM leukemia cells = assay: CCRF-CEM ASNase cell proliferation assay, phenotypic assay for cellular inhibition of GCN2; details: Homo sapiens; ASNase treated CCRF-CEM cells, 1 mU/mL ASNase, 72 h
In short: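 Cells were seeded at ten thousand per well in RPMI-1640 with 10% heat-inactivated FBS and treated in triplicate with serially diluted compound plus 1 mU/mL ASNase for 72 h at 37 °C, 5% CO2. Resazurin was then added for 6 h, with fluorescence read at ex 540/em 600 nm to derive IC50 values.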

[1] = system: phospho-GCN2 (Thr899) in HCT116 colorectal cancer cells; assay: HCT116 amino acid starved (-AA) phospho-GCN2 assay (Western blot); details: Homo sapiens, HCT-116, 4 h, read-out: HCT116-AA pGCN2 Western Blot
In short: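 HCT116 cells switched to amino-acid-free EBSS (10% dialyzed FBS, 5.5 mM glucose, vitamins) with serial compound dilutions for 4 h at 37° C. Lysates Western blotted for phospho-GCN2 (Thr899), total GCN2, ATF4 and beta-actin; IC50 values derived from quantified bands.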

[2] = system: H929, RPMI8226, GA-10 and DoHH-2 cells; assay: Inhibition of multiple myeloma and B-cell lymphoma cell proliferation; details: combination with SOC agents for multiple myeloma or B cell lymphomas
Description: H929, RPMI8226, GA-10, and DoHH-2 cells (catalog #CRL-9068) were obtained from the American Type Culture Collection (ATTC, Manassas, VA). H929 Cells were maintained in RPMI-1640 medium supplemented with 20% heat-inactivated fetal bovine serum (catalog #A3840002, ThermoFisher Scientific, Waltham, MA), 1% Penicillin/Streptomycin/L-Glutamine (catalog #10378016, ThermoFisher Scientific, Waltham, MA), and 0.05 mM 2-mercaptoethanol (catalog #21985-023, ThermoFisher Scientific, Waltham, MA). […]
For cell proliferation assay appropriate number of cells (Forty thousand cells for H929; Twenty thousand cells for RPMI8226, and GA-10; Eight thousand cells for DoHH-2) were seeded per well in 200 μL in respective medium were dispensed into a 96-well black clear bottom plate. […] Plates were read on a Synergy2 or equivalent reader (Biotek, Winooski VT) using an excitation of 540 nm and an emission of 600 nm. At the end of the incubation of DoHH-2, cell viability was determined using CellTiter-Glo® assay (Promega, Madison, WI). Luminescence was measured using EnVision MultiLabel Reader (PerkinElmer, Waltham, MA). Data was analyzed using GraphPad Prism software (GraphPad, San Diego, CA) to calculate IC50 values.

In the case of CNc1ncc2cc(-c3cccc(NS(=O)(=O)c4cc(Cl)cnc4OC)c3F)c(NC)nc2n1 [Compound 16], the IC50 (CCRF-CEM leukemia cells) is reported as no more than 100 nM, the IC50 [1] is reported as no more than 100 nM and the “inhibition of cell proliferation in combination with standard of care agents” value [2] is reported as “additivity or synergy”.
